According to PMC11931445, “A Novel Compound QO‐83 Alleviates Acute and Chronic Epileptic Seizures in Rodents by Modulating KV7 Channel Activity” (CNS Neuroscience & Therapeutics, 2025):

Tests used:
[1] = molecular target: T1, KV7.2 (Homo sapiens, UniProt O43526); assay: Manual patch clamp, KV7 currents; type: cell-based; settings: KV7.2
T1 construct: expressed in transfected cells
Method: (§1) Pipettes (1–6 MΩ) were filled with a solution of KCl (145 mM), MgCl2 (1 mM), HEPES (10 mM), and EDTA (5 mM). The pH was adjusted to 7.2 with NaOH. Electrophysiological measurements were obtained using an AXON Multiclamp 700 B patch‐clamp amplifier. The bath solution contained NaCl (144 mM), KCl (5 mM), MgCl2 (1 mM), CaCl2 (2 mM), and D‐glucose (10 mM), with the pH adjusted to 7.4 using NaOH. The protocol involved an increase in voltage from −120 mV to 40 mV in increments of 10 mV to evoke a series of KV7 currents (1000 ms per pulse) in the bath solution. For details on cell culture, please see Appendix S1 2.2.1.
(§2) Statistical differences between multiple groups (mean ± SEM) were compared using one‐ or two‐way ANOVA. Electrophysiological data were analyzed using SPSS version 21 and OriginPro (version 9.1.0). P Peak inward currents obtained from activation protocols were calculated using the following equation: G = I/(Vm‐EK), where G is conductance, I is peak inward current, Vm is instantaneous membrane potential, and EK is equilibrium potential for the […] channel. Conductance data were normalized using maximum conductance and further fitted to the Boltzmann equation: G=Gmax+Gmin−Gmax/1+expVm−V1/2/k , where G is conductance, V1/2 is midpoint of activation, and k is slope factor. The “Spectrum” module of LabChart was used for data analysis of EEG signals, including the calculation of power density and averaging power spectral density (PSD).
(§3) Stable Chinese Hamster Ovary (CHO) cell lines expressing specific Kv7 channel subtypes, including KV7.2 and KV7.2/7.3, were cultured in Minimum Essential Medium (MEM) supplemented with 10% fetal calf serum, 1× nonessential amino acids, […], and […] hygromycin B. Concurrently, KV7.4 and KV7.5 channels were stably expressed in Human Embryonic Kidney 293A (HEK293A) cell lines and nurtured in Dulbecco's Modified Eagle Medium (DMEM) high glucose medium supplemented with 10% fetal bovine serum (FBS), […], and […] hygromycin B.

[2] = molecular target: T2, KV7.2/7.3 (Homo sapiens, UniProt O43525+O43526); assay: Manual patch clamp, KV7 currents; type: cell-based
T2 construct: expressed in transfected cells
Method: as §1, §2, §3

[3] = molecular target: T3, KV7.4 (Homo sapiens, UniProt P56696); assay: Manual patch clamp, KV7 currents; type: cell-based
T3 construct: expressed in transfected cells
Method: as §1, §2, §3

[4] = molecular target: T4, KV7.5 (Homo sapiens, UniProt Q9NR82); assay: Manual patch clamp, KV7 currents; type: cell-based
T4 construct: expressed in transfected cells
Method: as §1, §2, §3

[5] = molecular target: KV7.3 (Homo sapiens, UniProt O43525); assay: Manual patch clamp, KV7 currents; type: cell-based
Method: as §1, §2

[6] = tested on: pilocarpine-induced seizures; assay: Pilocarpine-induced status epilepticus model with EEG; type: in vivo, Sprague–Dawley (SD) rats; settings: for effect on EEG power spectral density: pilocarpine-treated rats
Description: For animal experiments, we used adult male Sprague–Dawley (SD) rats weighing between 240 and 260 g. Isoflurane anesthesia was used for all operations. Rats were secured in a stereotaxic frame, and the anterior fontanelle was marked 3 mm posteriorly. Additionally, marks were made approximately 3 mm lateral to the midline on both sides to indicate the insertion points for the positive and negative electrodes. A ground electrode was placed subcutaneously in the occipital lobe to eliminate recording noise. Postoperatively, each animal was housed separately in a single cage and provided food and water ad libitum. After a 3‐day adaptation period, electroencephalograms (EEG) were recorded.
The experimental procedure commenced with an intraperitoneal injection of lithium chloride (127 mg/kg). After 24 h, subcutaneous scopolamine methyl nitrate (1 mg/kg) was administered. […] Twenty minutes later, status epilepticus (SE) was induced by administering pilocarpine (100 mg/kg, i.p.). SE was terminated 2 h later by administering 10% chloral hydrate.
The Pilo group, 2 mg/kg XE991 group, and 2 mg/kg XE991 + 1 mg/kg QO‐83 group received an intraperitoneal injection of lithium chloride (127 mg/kg) 24 h prior to testing. Following this, scopolamine methyl nitrate (1 mg/kg) was administered […], and after 10 min, each group was treated with 25% beta‐cyclodextrin, 2 mg/kg XE991, or 2 mg/kg XE991, respectively. After 15 min, 25% beta‐cyclodextrin, 25% beta‐cyclodextrin, or 1 mg/kg QO‐83 was administered. Finally, 25 min later, pilocarpine (100 mg/kg, i.p.) was administered to induce seizures.
Seizure severity was assessed using a standardized scale ranging from 1 to 5, adapted from previous research criteria. Stage 1 encompasses mouth and facial movements, including wet dog shakes. Stage 2 involves head nodding. Stage 3 is characterized by unilateral forelimb clonus. […] Finally, stage 5 manifests as clonus of all limbs accompanied by falling.

[7] = tested on: PNC-induced seizures; assay: Penicillin (PNC) induced acute epilepsy model; type: in vivo, SD rats; settings: 40 mg/kg i.g.
Method: In the penicillin (PNC) induced acute epilepsy model study, male SD rats weighing between 180 g and 250 g were utilized. […] Each group consisted of 10 rats.
PNC was administered intraperitoneally at a dose of 8 million U/kg to induce epileptic seizures. […] In the Compound QO‐83 treatment groups, rats were orally administered the designated doses of Compound QO‐83, followed by an intraperitoneal injection of PNC after a 20‐min interval. The PNC model group received an oral gavage of a 0.5% CMC‐Na solution, followed by an intraperitoneal injection of PNC after a 20‐min interval. […] Seizure behaviors, including convulsions, limb jerks, and loss of postural control, were observed and analyzed in all groups.

[8] = Colour stability of drug solutions; type: physicochemical; settings: 10 μM in saline, 37°C, 30 days
Method: Both drugs were dissolved in saline at a concentration of 10 μM and maintained at a constant temperature of 37°C for 30 days.

Compound: CCOC(=O)Nc1ccc(NCc2ccc(F)cc2)cc1N [RTG, retigabine]
- activation curve V1/2 ([1]; 10.00 μM): -32.23 ± 1.89 mV
- Activation τ (10 mV) ([1]; 10 μM, Mean ± SE): 259.60 ± 69.06 ms
- Deactivation τ (-120 mV) ([1]; 10 μM, Mean ± SE): 102.04 ± 18.32 ms
- activation curve V1/2 ([2]; 10.00 μM): -37.76 ± 2.34 mV
- Activation τ (10 mV) ([2]; 10 μM, Mean ± SE): 205.66 ± 37.03 ms
- Deactivation τ (-120 mV) ([2]; 10 μM, Mean ± SE): 154.46 ± 45.81 ms
- activation curve V1/2 ([3]; 10.00 μM): -40.62 ± 2.00 mV
- Activation τ (10 mV) ([3]; 10 μM, Mean ± SE): 242.74 ± 34.66 ms
- Deactivation τ (-120 mV) ([3]; 10 μM, Mean ± SE): 99.62 ± 18.87 ms
- activation curve V1/2 ([4]; 10.00 μM): -56.77 ± 1.07 mV
- Activation τ (10 mV) ([4]; 10 μM, Mean ± SE): 170.33 ± 16.42 ms
- Deactivation τ (-120 mV) ([4]; 10 μM, Mean ± SE): 96.4 ± 14.98 ms
- activation curve V1/2 ([5]; 10.00 μM): -55.64 ± 1.31 mV
- Activation τ (10 mV) ([5]; 10 μM, Mean ± SE): 246.33 ± 21.28 ms
- Deactivation τ (-120 mV) ([5]; 10 μM, Mean ± SE): 153.33 ± 48.97 ms
- effect on epileptic behavior ([6]; 1 mg/kg i.p.): could not rescue the epileptic behavior
- effect on EEG power spectral density ([6]; 1 mg/kg i.p.): did not exhibit effects equivalent
- effect on latency of seizures ([6]; 10 mg/kg i.p.): significantly prolonged the latency of seizures
- effect on seizure grade ([6]; 10 mg/kg i.p.): reduced the seizure grade
- effect on EEG power spectral density ([6]; 10 mg/kg i.p.): significantly inhibited the increase in EEG power spectral density
- effect on seizure latency [7]: significantly increased seizure latency
- seizure grade [7]: 2.66 ± 0.33
- color change of drug solution [8]: developed a distinct purple coloration
